Test results reported in publication PMC11089506 (Journal of Medicinal Chemistry, 2024).
Where a name gives a salt, the structure may show the parent alone.

Columns and labels:
5-HT1A = target: T1, 5-HT1A (Homo sapiens, UniProt P08908); assay: radioligand competition binding, [3H]8-OH-DPAT
T1 construct: Eurofins
T1 sequence (P08908 1-422): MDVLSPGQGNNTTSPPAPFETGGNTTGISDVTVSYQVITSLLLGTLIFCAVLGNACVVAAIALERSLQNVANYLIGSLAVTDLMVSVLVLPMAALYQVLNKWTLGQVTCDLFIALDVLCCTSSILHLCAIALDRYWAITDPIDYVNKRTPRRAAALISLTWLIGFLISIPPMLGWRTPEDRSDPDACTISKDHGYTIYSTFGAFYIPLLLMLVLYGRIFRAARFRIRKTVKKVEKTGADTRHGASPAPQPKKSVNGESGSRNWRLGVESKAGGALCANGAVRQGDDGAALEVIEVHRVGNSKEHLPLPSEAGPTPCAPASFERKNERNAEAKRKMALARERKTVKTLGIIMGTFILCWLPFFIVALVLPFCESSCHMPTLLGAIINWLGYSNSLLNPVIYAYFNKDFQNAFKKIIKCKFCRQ

[1] = target: T2, D1 (dopaminergic receptor) (Homo sapiens, UniProt P21728); assay: radioligand competition binding, [3H]SCH 23390; conditions: read-out: % inhibition of the specific radioligand binding
T2 construct: Eurofins

[2] = target: T3, D2S (dopaminergic receptor) (Homo sapiens, UniProt P14416); assay: radioligand competition binding, [3H]7-OH-DPAT; conditions: read-out: % inhibition of the specific radioligand binding
T3 construct: Eurofins

Cannabinoid receptor CB1 = target: T4, Cannabinoid receptor CB1 (Homo sapiens, UniProt P21554); assay: radioligand competition binding, [3H]SR141716A
T4 construct: Eurofins

Endothelin receptor ETA = target: T5, Endothelin receptor ETA (Homo sapiens, UniProt P25101); assay: radioligand competition binding, [125I]Endothelin-1
T5 construct: Eurofins

Endothelin receptor ETB = target: T6, Endothelin receptor ETB (Homo sapiens, UniProt P24530); assay: as above
T6 construct: Eurofins

Estrogen receptor ERα = target: T7, Estrogen receptor ERα (Homo sapiens, UniProt P03372); assay: radioligand competition binding, [3H]Estradiol
T7 construct: Eurofins

Glucocorticoid receptor = target: T8, Glucocorticoid receptor (Homo sapiens, UniProt P04150); assay: radioligand competition binding, [3H]Dexamethasone
T8 construct: Eurofins

[3] = target: T9, Leukotriene receptor CysLT1 (Homo sapiens, UniProt Q9Y271); assay: radioligand competition binding, [125I]LTD4
T9 construct: Eurofins

Phorbol ester = assay: radioligand competition binding, [3H]PDBu; set-up: species or system mouse
[4] = target: T10, Platelet Activating Factor Receptor (Homo sapiens, UniProt P25105); assay: radioligand competition binding, [3H]PAF
T10 construct: Eurofins

Prostanoid receptor EP4 = target: T11, Prostanoid receptor EP4 (Homo sapiens, UniProt P35408); assay: radioligand competition binding, [3H]Prostaglandin E2
T11 construct: Eurofins

Sigma receptor σ1 = target: T12, Sigma receptor σ1 (Homo sapiens, UniProt Q99720); assay: radioligand competition binding, [3H]Pentazocine
T12 construct: Eurofins (contract laboratory)

Androgen receptor (NHR) = Androgen receptor (NHR) (Homo sapiens, UniProt P10275); conditions: estimated from the % inhibition data
[5] = target: NMDA receptor (Glutamate) (Rattus norvegicus, UniProt Q00959); assay: biochemical; conditions: read-out: % inhibition of the specific radioligand binding
[6] = estimated from the % inhibition data
[7] = read-out: % inhibition of the specific radioligand binding

T8 sequence (P04150 whole entry): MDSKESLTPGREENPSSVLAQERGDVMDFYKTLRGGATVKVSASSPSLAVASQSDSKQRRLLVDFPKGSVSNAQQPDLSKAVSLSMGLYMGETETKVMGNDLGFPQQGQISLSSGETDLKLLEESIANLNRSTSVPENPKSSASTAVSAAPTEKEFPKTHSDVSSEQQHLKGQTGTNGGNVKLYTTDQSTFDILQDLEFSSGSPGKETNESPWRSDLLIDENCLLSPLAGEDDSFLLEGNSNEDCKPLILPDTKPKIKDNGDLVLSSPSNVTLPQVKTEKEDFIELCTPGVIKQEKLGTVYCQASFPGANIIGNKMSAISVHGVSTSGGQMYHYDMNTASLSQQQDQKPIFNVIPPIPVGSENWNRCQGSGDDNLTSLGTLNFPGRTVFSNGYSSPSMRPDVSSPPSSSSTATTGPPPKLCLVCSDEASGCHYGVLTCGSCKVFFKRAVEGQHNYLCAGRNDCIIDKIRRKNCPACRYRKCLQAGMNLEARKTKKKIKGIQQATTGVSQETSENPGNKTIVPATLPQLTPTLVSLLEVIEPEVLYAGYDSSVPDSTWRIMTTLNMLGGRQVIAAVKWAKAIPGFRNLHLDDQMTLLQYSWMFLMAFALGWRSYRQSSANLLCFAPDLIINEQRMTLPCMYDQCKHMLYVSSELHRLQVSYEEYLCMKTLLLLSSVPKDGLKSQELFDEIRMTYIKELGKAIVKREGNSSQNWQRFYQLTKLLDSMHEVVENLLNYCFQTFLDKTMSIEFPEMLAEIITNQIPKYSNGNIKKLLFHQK
T10 sequence (P25105 whole entry): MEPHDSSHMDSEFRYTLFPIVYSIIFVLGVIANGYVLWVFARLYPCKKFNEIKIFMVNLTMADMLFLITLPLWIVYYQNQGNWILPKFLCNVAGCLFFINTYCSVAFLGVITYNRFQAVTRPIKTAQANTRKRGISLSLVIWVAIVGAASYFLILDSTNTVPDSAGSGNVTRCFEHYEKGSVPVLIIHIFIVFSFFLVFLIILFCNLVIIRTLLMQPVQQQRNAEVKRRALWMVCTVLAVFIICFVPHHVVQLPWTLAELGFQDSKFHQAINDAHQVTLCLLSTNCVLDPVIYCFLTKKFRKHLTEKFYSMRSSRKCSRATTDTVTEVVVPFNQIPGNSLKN
T5 sequence (P25101 21-427): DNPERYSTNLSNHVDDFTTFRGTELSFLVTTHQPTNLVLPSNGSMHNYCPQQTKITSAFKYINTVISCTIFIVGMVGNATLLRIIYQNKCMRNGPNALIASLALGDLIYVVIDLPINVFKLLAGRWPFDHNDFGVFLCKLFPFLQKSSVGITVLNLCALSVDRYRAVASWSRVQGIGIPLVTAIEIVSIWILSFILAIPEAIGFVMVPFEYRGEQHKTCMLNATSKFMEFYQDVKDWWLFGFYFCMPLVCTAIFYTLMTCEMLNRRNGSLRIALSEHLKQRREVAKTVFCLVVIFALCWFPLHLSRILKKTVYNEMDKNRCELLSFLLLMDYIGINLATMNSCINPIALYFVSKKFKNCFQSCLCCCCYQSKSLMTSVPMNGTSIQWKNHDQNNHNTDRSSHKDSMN
T6 sequence (P24530 27-442): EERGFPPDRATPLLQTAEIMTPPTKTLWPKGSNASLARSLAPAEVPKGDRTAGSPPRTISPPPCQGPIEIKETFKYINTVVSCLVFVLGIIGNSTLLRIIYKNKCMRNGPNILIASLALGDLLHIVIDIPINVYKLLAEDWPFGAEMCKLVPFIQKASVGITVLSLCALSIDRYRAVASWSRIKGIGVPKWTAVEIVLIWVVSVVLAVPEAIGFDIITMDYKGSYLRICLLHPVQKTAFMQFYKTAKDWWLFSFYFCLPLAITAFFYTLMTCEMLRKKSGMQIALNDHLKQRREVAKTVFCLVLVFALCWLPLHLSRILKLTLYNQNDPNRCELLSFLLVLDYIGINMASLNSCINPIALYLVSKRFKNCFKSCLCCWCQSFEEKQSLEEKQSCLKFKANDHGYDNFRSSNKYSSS
T4 sequence (P21554 whole entry): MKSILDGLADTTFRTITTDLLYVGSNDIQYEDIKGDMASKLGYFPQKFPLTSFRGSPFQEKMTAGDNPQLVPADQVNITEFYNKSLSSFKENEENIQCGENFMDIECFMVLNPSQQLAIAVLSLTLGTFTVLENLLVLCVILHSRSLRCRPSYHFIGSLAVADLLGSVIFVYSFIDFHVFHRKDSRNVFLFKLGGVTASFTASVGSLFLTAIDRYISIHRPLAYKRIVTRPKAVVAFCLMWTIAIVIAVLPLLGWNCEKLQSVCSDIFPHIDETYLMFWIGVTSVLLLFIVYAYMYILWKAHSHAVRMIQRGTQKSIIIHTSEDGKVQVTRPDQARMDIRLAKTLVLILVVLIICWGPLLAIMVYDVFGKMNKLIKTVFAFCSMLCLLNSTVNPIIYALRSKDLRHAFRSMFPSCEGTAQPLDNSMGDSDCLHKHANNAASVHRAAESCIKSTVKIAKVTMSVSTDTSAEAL
T7 sequence (P03372 whole entry): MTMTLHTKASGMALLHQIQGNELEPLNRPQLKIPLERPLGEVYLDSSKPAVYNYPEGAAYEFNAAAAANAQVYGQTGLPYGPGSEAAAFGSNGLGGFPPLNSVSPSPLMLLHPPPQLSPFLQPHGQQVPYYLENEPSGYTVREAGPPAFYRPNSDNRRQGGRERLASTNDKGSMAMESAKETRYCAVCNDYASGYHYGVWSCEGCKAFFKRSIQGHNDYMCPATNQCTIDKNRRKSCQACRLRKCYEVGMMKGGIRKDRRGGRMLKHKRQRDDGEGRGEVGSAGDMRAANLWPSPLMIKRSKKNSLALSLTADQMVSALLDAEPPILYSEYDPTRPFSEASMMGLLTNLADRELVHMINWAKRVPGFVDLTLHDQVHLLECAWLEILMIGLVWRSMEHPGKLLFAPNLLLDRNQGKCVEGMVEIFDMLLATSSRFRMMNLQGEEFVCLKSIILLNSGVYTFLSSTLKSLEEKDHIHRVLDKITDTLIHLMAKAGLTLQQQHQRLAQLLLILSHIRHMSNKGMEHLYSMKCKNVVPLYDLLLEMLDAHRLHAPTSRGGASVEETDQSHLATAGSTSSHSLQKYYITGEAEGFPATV
T9 sequence (Q9Y271 whole entry): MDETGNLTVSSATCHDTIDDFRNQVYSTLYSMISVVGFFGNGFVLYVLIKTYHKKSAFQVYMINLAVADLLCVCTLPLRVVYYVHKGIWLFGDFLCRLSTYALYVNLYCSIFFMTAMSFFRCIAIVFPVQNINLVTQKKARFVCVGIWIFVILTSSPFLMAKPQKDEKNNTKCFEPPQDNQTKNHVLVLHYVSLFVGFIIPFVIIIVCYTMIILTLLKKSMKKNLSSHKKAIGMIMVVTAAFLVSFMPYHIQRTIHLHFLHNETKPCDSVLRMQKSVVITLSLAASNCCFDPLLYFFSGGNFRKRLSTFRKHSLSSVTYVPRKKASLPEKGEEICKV
T11 sequence (P35408 whole entry): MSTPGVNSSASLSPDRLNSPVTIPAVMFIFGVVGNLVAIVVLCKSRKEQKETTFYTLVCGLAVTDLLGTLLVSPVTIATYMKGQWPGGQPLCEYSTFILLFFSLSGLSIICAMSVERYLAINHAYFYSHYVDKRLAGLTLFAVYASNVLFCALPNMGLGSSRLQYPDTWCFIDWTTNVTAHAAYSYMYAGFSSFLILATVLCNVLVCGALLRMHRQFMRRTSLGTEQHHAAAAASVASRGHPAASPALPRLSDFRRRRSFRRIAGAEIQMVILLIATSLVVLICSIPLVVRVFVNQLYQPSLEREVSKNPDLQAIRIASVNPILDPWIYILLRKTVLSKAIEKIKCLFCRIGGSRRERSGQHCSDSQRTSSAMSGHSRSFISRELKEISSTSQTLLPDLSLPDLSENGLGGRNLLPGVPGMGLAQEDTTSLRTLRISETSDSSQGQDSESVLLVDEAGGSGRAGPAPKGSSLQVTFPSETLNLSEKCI
T12 sequence (Q99720 whole entry): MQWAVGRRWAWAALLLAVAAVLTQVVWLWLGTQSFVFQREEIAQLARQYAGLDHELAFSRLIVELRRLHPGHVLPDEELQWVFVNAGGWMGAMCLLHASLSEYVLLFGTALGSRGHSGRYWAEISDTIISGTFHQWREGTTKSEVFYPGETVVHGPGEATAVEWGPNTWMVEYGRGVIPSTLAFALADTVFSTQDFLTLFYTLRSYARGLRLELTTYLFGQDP
T2 sequence (P21728 whole entry): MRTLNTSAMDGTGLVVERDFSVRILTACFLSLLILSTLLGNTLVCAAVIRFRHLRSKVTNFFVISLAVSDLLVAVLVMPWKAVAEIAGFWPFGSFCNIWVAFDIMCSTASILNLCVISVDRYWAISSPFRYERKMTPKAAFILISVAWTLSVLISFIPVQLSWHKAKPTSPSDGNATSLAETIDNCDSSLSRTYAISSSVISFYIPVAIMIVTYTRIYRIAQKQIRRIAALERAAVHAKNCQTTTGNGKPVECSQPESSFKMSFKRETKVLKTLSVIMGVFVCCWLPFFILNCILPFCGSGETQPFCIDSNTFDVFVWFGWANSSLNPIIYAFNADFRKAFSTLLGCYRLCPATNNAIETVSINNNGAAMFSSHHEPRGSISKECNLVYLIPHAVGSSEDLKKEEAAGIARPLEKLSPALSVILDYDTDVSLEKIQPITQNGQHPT
T3 sequence (P14416 1-414 isoform P14416-2): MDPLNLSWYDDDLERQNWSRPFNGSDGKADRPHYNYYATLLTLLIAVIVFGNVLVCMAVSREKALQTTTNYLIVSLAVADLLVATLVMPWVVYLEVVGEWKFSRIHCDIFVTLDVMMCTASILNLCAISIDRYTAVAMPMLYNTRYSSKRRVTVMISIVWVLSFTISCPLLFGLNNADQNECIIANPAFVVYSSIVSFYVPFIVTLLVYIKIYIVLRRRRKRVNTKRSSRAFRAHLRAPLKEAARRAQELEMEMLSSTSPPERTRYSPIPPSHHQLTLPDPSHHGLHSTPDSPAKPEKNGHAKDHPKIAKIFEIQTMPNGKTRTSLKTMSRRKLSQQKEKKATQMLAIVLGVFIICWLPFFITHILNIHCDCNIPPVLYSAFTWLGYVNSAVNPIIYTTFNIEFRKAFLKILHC

`COc1cc(C(F)(F)F)c(OC)cc1[C@@H]1CCCNC1` [(S)-11, 3-(2,5-Dimethoxy-4-(trifluoromethyl)phenyl)piperidine Hydrochloride] was tested, and the IC50 (5-HT1A; [6]) was 0.1 to 1 µM, the inhibition at 0.1 µM (5-HT1A; [7]) was 20% and the inhibition at 1 µM (5-HT1A; [7]) was 64%. For the same molecule, the inhibition at 10 µM (5-HT1A; [7]) was 90%, the inhibition at 10 µM [1] was 30% and the inhibition at 10 µM [2] was 59%. It also gave an IC50 (Cannabinoid receptor CB1; [6]) greater than 10 µM, an inhibition at 10 µM (Cannabinoid receptor CB1; [7]) of 14% and an IC50 (Endothelin receptor ETA; [6]) greater than 10 µM. It also gave an inhibition at 10 µM (Endothelin receptor ETA; [7]) of 12%, an IC50 (Endothelin receptor ETB; [6]) greater than 10 µM and an inhibition at 10 µM (Endothelin receptor ETB; [7]) of -6%. The IC50 (Estrogen receptor ERα; [6]) was greater than 10 µM, the inhibition at 10 µM (Estrogen receptor ERα; [7]) was -2% and the IC50 (Glucocorticoid receptor; [6]) was greater than 10 µM. The inhibition at 10 µM (Glucocorticoid receptor; [7]) was 11%, the IC50 [3, 6] was greater than 10 µM and the inhibition at 10 µM [3, 7] was -7%. The “% inhibition of the specific radioligand binding” value (Phorbol ester; (S)-11 10 μM, n=1) was 15%, the IC50 (Phorbol ester; [6]) was greater than 10 µM and the IC50 [4, 6] was greater than 10 µM. It also gave an inhibition at 10 µM [4, 7] of -11%, an IC50 (Prostanoid receptor EP4; [6]) greater than 10 µM and an inhibition at 10 µM (Prostanoid receptor EP4; [7]) of 9%. The IC50 (Sigma receptor σ1; [6]) was 1 to 10 µM, the inhibition at 10 µM (Sigma receptor σ1; [7]) was 84% and the IC50 (Androgen receptor (NHR)) was greater than 10 µM. For the same molecule, the inhibition at 10 µM [5] was -8%.
